From patent US20150231067A1, “METHOD AND COMPOSITION FOR TREATING HYPERGLYCEMIA” (MannKind Corporation, priority 2012, published 2015)

Assays:
[1] = Deacon et al., cited from earlier work
[2] = test system: healthy adult male subjects
Protocol: Additional pulmonary safety and pharmacokinetic parameters were also evaluated. Pulmonary safety as expressed by the incidence of pulmonary and other adverse events and changes in pulmonary function between Visit 1 (Screening) and Visit 3 (Follow-up) was studied. […] Clinical trial endpoints were based on a comparison of the following pharmacological and safety parameters determined in the trial subject population. Primary endpoints included the incidence and severity of reported AEs, including cough and dyspnea, nausea and/or vomiting, as well as changes from screening in vital signs, clinical laboratory tests and physical examinations.

[3] = literature evaluation; cited from earlier work
[4] = test system: healthy adult male subjects; assay: Phase 1a trial of GLP-1/FDKP inhalation powder: insulin, glucose and glucagon response; format: in vivo, human; conditions: 1.5 mg GLP-1; two of the six subjects; value that defines hypoglycemia
Excerpt: Dropouts were not replaced. These dosages assumed a body mass of 70 kg.

[5] = test system: male ZDF rats; assay: Food consumption after oxyntomodulin/FDKP powder; format: in vivo, rat; conditions: 0.15-0.9 mg oxyntomodulin as 30% powder, rats fasted 24 hr
Protocol: Male ZDF rats (10/group) were assigned to one of four groups.
Rats were allowed to eat after receiving the experimental dose. A predetermined amount of food was given to the rats and the amount of food the rats consumed was measured at various times after the start of the experiment.

Compound | degradation in the liver [1] [%] | GLP-1 instantaneously metabolized in the vein ([1]; intravenous, pigs) [%] | GLP-1 metabolized in the deoxygenated blood in the lung ([1]; intravenous, pigs) [%] | extraction by the portal bed ([1]; intravenous, pigs) [%] | subjects reporting symptoms of nausea, profuse sweating or vomiting ([2]; all doses, pulmonary) | inhibition of gastric emptying ([2]; pulmonary dry powder, data not shown) | active GLP-1 concentration in blood plasma above which profuse sweating, nausea and vomiting are typically observed [3] | time for plasma active GLP-1 to fall to the physiological range (after inhalation of GLP-1/FDKP powder) [min] | metabolite peaks, intravenous compared to pulmonary administration (at comparable active concentrations) | glucose concentration lowered by GLP-1 [4] | duration of significantly less food consumed than control rats [5]
CC[C@H](C)[C@H](NC(=O)[C@H](Cc1ccccc1)NC(=O)[C@H](CCC(=O)O)NC(=O)[C@H](CCCCN)NC(=O)[C@H](C)NC(=O)[C@H](C)NC(=O)[C@H](CCC(N)=O)NC(=O)CNC(=O)[C@H](CCC(=O)O)NC(=O)[C@H](CC(C)C)NC(=O)[C@H](Cc1ccc(O)cc1)NC(=O)[C@H](CO)NC(=O)[C@H](CO)NC(=O)[C@@H](NC(=O)[C@H](CC(=O)O)NC(=O)[C@H](CO)NC(=O)[C@@H](NC(=O)[C@H](Cc1ccccc1)NC(=O)[C@@H](NC(=O)CNC(=O)[C@H](CCC(=O)O)NC(=O)[C@H](C)NC(=O)[C@@H](N)Cc1c[nH]cn1)[C@@H](C)O)[C@@H](C)O)C(C)C)C(=O)N[C@@H](C)C(=O)N[C@@H](Cc1c[nH]c2ccccc12)C(=O)N[C@@H](CC(C)C)C(=O)N[C@H](C(=O)N[C@@H](CCCCN)C(=O)NCC(=O)N[C@@H](CCCNC(=N)N)C(N)=O)C(C)C [GLP-1, GLP-1(7-36)amide] | 45 | 40 | 10 | 20 | None of the subjects | lack inhibition of gastric emptying | exceed 100 pmol/L | ≤ 9 | 8-9 fold greater | below 3.5 mmol/L | 
oxyntomodulin |  |  |  |  |  |  |  |  |  |  | up to 6 hr
